Literature values in patent US20070286899A1, “Photo-composition for the treatment of joint diseases” (priority 2004, published 2007).

Tested on: patients who use methotrexate

In the case of `CN(Cc1cnc2nc(N)nc(N)c2n1)c1ccc(C(=O)N[C@@H](CCC(=O)O)C(=O)O)cc1` [methotrexate], the “patients who develop gastrointestinal problems such as diarrhea and nausea” value is listed as 60%.
